Measurements: patent EP1431294A1, “VASCULAR WALL-SELECTIVE ACAT INHIBITOR” (Kowa Company Ltd., priority 2001, dated 2003)
pIC50: −log10 of the molar value.

Columns and labels:
[1] = test system: lipid-loaded model of F1B hamster; assay: Arteriosclerotic model animal test (lipid-loaded F1B hamster); details: for dose from which suppression of lipid accumulation was effective / plasma cholesterol at doses effective in suppression of lipid accumulation: F1B hamsters; for dose from which suppression of lipid accumulation was effective: drug in high-fat feed; for dose from which suppression of lipid accumulation was effective / CE/FC Adrenal Gland / CE/FC Lipid Accumulation to Artery / CE/FC Liver / CE/FC Small Intestine: 10 weeks; for plasma cholesterol at doses effective in suppression of lipid accumulation: total cholesterol in plasma relative to control, Dunnett's test; for CE/FC Adrenal Gland / CE/FC Lipid Accumulation to Artery / CE/FC Liver / CE/FC Small Intestine: ratio to control (1.0)
Method: Male hamsters of a Bio F1B strain purchased from Nippon Charles River were randomly grouped so that each group comprised six. As from eight weeks age, they were loaded with a high-fat feed (0.3% of cholesterol and 10% of coconut oil) for ten weeks while the drug was administered by mixing with the feed. After ten weeks, blood was collected and cholesterol in plasma was measured. Further, arterywas excised after fixingbyperfusion with a 10% formalin solution. This was incised, lipid which was accumulated in the artery was stained with Oil Red O and the stained area was measured using an image analyzer.
A high-fat feed (0.3% of cholesterol and 10% of coconut oil) was prepared by way of compounding ratio of cholesterol : coconut oil : feed (CE-2) = 0.03:1:9. Incidentally, a high-fat feed was given to the control group and the administered period was 10 weeks.
Hamster under a non-fasted state was anesthetized, subj ected to an abdominal section to expose the abdominal artery and about 2.5 mL of blood were collected. The collected blood was centrifuged at 3, 000 rpm for 15 minutes to collect the plasma and then total cholesterol (TC) and free cholesterol (FC) in plasma were determined by a Cholesterol E-Test Wako (a cholesterol oxidase DAOS method) and a Free Cholesterol E-Test Wako (a cholesterol oxidase DAOS method), respectively.
About 500 mg of liver, small intestine and adrenal body were excised and washed with a physiological saline solution and lipid concentration in the tissues was measured. In the measurement, 10 mL of chloroform : methanol (2:1) as an extracting solution for lipid in the tissue were placed in the liver and the small intestine, homogenized at 3,000 rpm using a Polytron Homogenizer PT 3100 and allowed to stand at 4°C for one night. The extract was centrifuged at 1,500 rpm for 15 minutes, 0.2 mL of the supernatant liquid was evaporated to dryness using a vacuum pump, the residue was dissolved in 50 µL of isopropanol and each lipid was subjected to the same kits whereupon TC and FC were quantified. With regard to the adrenal body, it was finely cut using scissors and 0.5 mL of chloroform : methanol (2:1) was added thereto followed by being allowed to stand at 4°C for one night. That was centrifuged at 1,500 rpm for 15 minutes, 0.2 mL of the supernatant liquid was evaporated to dryness using a vacuum pump, the residue was dissolved in 50 µL of isopropanol and each lipid was subjected to the same kits whereupon TC and FC were quantified.
With regard to the total cholesterol (TC) in plasma in the group to which the drug was administered, the relative ratio to TC in the control group was used as an indicator while, with regard to the tissue, difference between TC and FC was defined as CE (cholesterol ester) and the lipid-constituting ratio, CE/FC, in each organ was determined whereupon their relative ratio to each control was calculated and used as an indicator. Thus, in those indicators, the control group was defined as 100% and the calculation using the following formula was carried out so as to use a plasma TC lowering action by ACAT inhibitory action to liver and small intestine of the group to which the drug was administered as an indicator and also to use the variation of CE/FC ratio by an ACAT inhibitory action to each organ as an indicator. Indicator (%) for total cholesterol in plasma = [(TC of drug-administered group)/(TC of the control group)] × 100 [formula] Indicator (%) for lipid constituting ratio in each organ = [(CE/FC of drug-administered group)/(CE/FC of the control group)] × 100 [formula]
After collection of the blood, a 18-G injection needle was inserted into apex and perfused with a physiological saline solution (120 mmHg) for about 5minutes. It was further perfused with a 10% neutral formalin buffer (120 mmHg) for about 5 minutes. Bulbar and thoracic artery was excised and fixed in a 10% formalin buffer.

ACAT [2] = target: T1, ACAT (Mus musculus, UniProt Q61263); assay: ACAT inhibitory activity test in J774 cells (anti-foaming action); type: cell-based; details: for pIC50: J774 cells, 25-hydroxycholesterol 10 µg/mL, 18 hours, cholesterol ester per protein
T1 construct: J774 cells or HepG2 cells were sown on a 24-well plate; endogenous in cells; host or cells: J774 cells
T1 sequence (Q61263 1-540): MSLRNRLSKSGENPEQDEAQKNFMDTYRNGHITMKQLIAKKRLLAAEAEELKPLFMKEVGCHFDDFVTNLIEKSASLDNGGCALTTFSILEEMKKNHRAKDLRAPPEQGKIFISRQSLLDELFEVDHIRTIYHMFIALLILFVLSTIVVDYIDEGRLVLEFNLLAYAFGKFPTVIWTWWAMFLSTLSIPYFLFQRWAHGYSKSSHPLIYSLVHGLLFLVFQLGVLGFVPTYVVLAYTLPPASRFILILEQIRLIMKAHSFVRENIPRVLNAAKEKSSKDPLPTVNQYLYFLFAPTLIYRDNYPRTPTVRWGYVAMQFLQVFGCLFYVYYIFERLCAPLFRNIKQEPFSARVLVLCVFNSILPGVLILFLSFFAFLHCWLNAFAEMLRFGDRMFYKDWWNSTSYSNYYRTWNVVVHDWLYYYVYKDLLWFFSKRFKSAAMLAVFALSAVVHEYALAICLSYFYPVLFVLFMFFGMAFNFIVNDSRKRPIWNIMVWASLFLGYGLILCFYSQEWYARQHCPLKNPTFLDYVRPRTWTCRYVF
Method: (§1) J774 cells or HepG2 cells were sown on a 24-well plate and incubation was carried out at 37°C for 24 hours in a 5% CO2 incubator using a Dulbecco's modified Eagle's medium for J774 cells and an Eagle's minimum essential medium for HepG2 cells (where both media contained 10% of fetal bovine serum). […] The medium was taken out, washed with PBS twice, extracted with 1.5 mL of hexane-isopropanol (3:2) and concentrated to dryness. The extract was dissolved in isopropanol containing 0.2 mL of 10% Triton X-100 and then total cholesterol (TC) and free cholesterol (FC) were determined by a Cholesterol E Test Wako (Wako Pure Chemical) and a Free Cholesterol E Test Wako (Wako Pure Chemical), respectively. The residue of the cell after extraction was solubilized with 0.25 mL of 2N NaOH at 37°C for 30 minutes and protein was determined by a BCA Protein Assay Reagent (Pierce). From the differencebetween TC and FC, amount of cholesterolester per protein was calculated and, from the comparative calculation with the control, IC50 value was determined.

[3] = Oral absorption test in rats under a fed condition (plasma concentration); type: in vivo; details: rat, 30 mg/kg
[4] = as above; type: in vivo; details: compared with the compound of Example 1; rats, 30 mg/kg
Method: A solution of the compound of the present invention (dissolved in a mixture of water : PEG 400 = 1:4) or a suspension in 0.5% methyl cellulose (MC) was compulsorily administered per os at. the dose of 30 mg/kg to three rats under a fed condition. Blood after the administration was periodically collected and its concentration in plasma was measured.
The organic layer (upper layer) was collected, the solvent was evaporated in a nitrogen stream, the residue was dissolved in 0.2 mL of a mobile phase (refer to the following) and 80 µL thereof were measured under the following analytical conditions.
The organic layer was collected, the solvent was evaporated in a nitrogen stream, the residue was dissolved in 0.2 mL of a mobile phase (refer to the following) and 80 µL thereof were measured under the following condition for high-performance liquid chromatography. Condition for detection: • (Detector: Single-stage quadrupole mass spectrometer • Ionization method: Atmospheric pressure chemical ionization method • Temperature of nebulizer: 475°C • Corona voltage: 3 kV • Monitoring ion: m/z 569 (hydrogen addition ion of the compound of Example 78), 549 (hydrogen addition ion of the compound of Example 85)) Condition for separation: • (Column: Symmetry RP8 manufactured by Waters (3.0 mmφ × 150 mm) • Temperature of column: 45°C • Mobile phase: a solution where 0.1% ammonium formate (pH 4)/methanol/acetonitrile are mixed in […] • Flow rate: 0.8 mL/min)
To 150 µL of plasma were added a 0.1 mol/L aqueous solution of sodium hydroxide and 0.2 mL of an analogous compound (500 ng/mL of the compound of Example 28 of the Japanese Patent Application No. 8/158,743, i.e. 8-(benzimidazol-2-ylthio)-N-(2,6-diisopropylphenyl)octanamide as an internal standard, stirred and extracted with 6 mL of an isopropanol/hexane (5: 95) solution. The organic layer was collected, the solvent was evaporated in a nitrogen stream, the residue was dissolved in 0.2 mL of a mobile phase (refer to the following) and 80 µL thereof were measured under the following condition for high-performance liquid chromatography.

ACAT [5] = assay: ACAT inhibitory activity test in HepG2 cells; type: cell-based; details: 25-hydroxycholesterol 10 µg/mL, 18 hours, cholesterol ester per protein
Method: as §1

With `CC(C)c1cc(C(C)C)c(CC(=O)NS(=O)(=O)Oc2c(C(C)C)cccc2C(C)C)c(C(C)C)c1` [Cl-1011] the “dose from which suppression of lipid accumulation was effective” value [1] was ≥ 1 mg/kg, the “plasma cholesterol at doses effective in suppression of lipid accumulation” value [1] was “accompanied by a significant decrease of plasma cholesterol” and the “CE/FC Adrenal Gland” value ([1]; dose 0.1 mg/kg in feed) was 0.98. The “CE/FC Lipid Accumulation to Artery” value ([1]; dose 0.1 mg/kg in feed) was 0.73, the “CE/FC Liver” value ([1]; dose 0.1 mg/kg in feed) was 1.03 and the “CE/FC Small Intestine” value ([1]; dose 0.1 mg/kg in feed) was 0.92. The “CE/FC Adrenal Gland” value ([1]; dose 0.3 mg/kg in feed) was 1.03, the “CE/FC Lipid Accumulation to Artery” value ([1]; dose 0.3 mg/kg in feed) was 0.81 and the “CE/FC Liver” value ([1]; dose 0.3 mg/kg in feed) was 0.74. For the same compound, the “CE/FC Small Intestine” value ([1]; dose 0.3 mg/kg in feed) was 0.82, the “CE/FC Adrenal Gland” value ([1]; dose 1 mg/kg in feed) was 0.62 and the “CE/FC Lipid Accumulation to Artery” value ([1]; dose 1 mg/kg in feed) was 0.35. The “CE/FC Liver” value ([1]; dose 1 mg/kg in feed) was 0.37, the “CE/FC Small Intestine” value ([1]; dose 1 mg/kg in feed) was 0.60 and the “CE/FC Adrenal Gland” value ([1]; dose 3 mg/kg in feed) was 0.24. The “CE/FC Lipid Accumulation to Artery” value ([1]; dose 3 mg/kg in feed) was 0.15, the “CE/FC Liver” value ([1]; dose 3 mg/kg in feed) was 0.17 and the “CE/FC Small Intestine” value ([1]; dose 3 mg/kg in feed) was 0.08. The “CE/FC Adrenal Gland” value ([1]; dose 10 mg/kg in feed) was 0.28, the “CE/FC Lipid Accumulation to Artery” value ([1]; dose 10 mg/kg in feed) was 0 and the “CE/FC Liver” value ([1]; dose 10 mg/kg in feed) was 0.07. For the same compound, the “CE/FC Small Intestine” value ([1]; dose 10 mg/kg in feed) was 0 and the “difference of selectivities in each of the tissues” value ([1]; suppressing rate of lipid accumulation vs CE/FC ratio in liver, small intestine, adrenal body) was “a significant difference of selectivities was not found”.

For `CC(C)c1ccc(O)c(C(C)C)c1NC(=O)CN1CCN(CCSc2nc3cccc(C(F)(F)F)c3o2)CC1` [Comparative Compound, 2-[4-[2-(7-trifluoromethylbenzoxazol-2-ylthio)ethyl]piperazin-1-yl]-N-(2,6-diisopropyl-3-hydroxyphenyl)acetamide], the pIC50 (ACAT [2]) was 6.34 and the “lowering of ACAT inhibitory activity (J774)” value (ACAT [2]; compared with the compound of Example 85 (19 nM)) was “about 24 fold”.

`CC(C)c1cccc(C(C)C)c1NC(=O)CN1CCN(CCSc2nc3ccccc3o2)CC1` [Example 1, 2-[4-[2-(benzoxazol-2-ylthio)ethyl]piperazin-1-yl]-N-(2,6-diisopropylphenyl) acetamide] gave an AUC(0-inf) ([3]; medium 0.05N (Aq HCl)) of 295 ng·h/mL and a Cmax ([3]; medium 0.05N (Aq HCl)) of 110 ng/mL.

In the case of `CSc1cc(C)nc(SC)c1NC(=O)CN1CCN(CCSc2nc3ccccc3o2)CC1` [Example 24, N-[2,4-bis (methylthio) -6-methyl-3-pyridyl]-2-[4-[2-(benzoxazol-2-ylthio)ethyl]-piperazin-1-yl]acetamide], the “dose from which suppression of lipid accumulation was effective” value [1] was ≥ 3 mg/kg, the “plasma cholesterol at doses effective in suppression of lipid accumulation” value [1] was “accompanied by a significant decrease of plasma cholesterol” and the “CE/FC Adrenal Gland” value ([1]; dose 1 mg/kg in feed) was 0.6. The “CE/FC Lipid Accumulation to Artery” value ([1]; dose 1 mg/kg in feed) was 0.91, the “CE/FC Liver” value ([1]; dose 1 mg/kg in feed) was 0.89 and the “CE/FC Small Intestine” value ([1]; dose 1 mg/kg in feed) was 0.79. For the same compound, the “CE/FC Adrenal Gland” value ([1]; dose 3 mg/kg in feed) was 0.34, the “CE/FC Lipid Accumulation to Artery” value ([1]; dose 3 mg/kg in feed) was 0.37 and the “CE/FC Liver” value ([1]; dose 3 mg/kg in feed) was 0.36. The “CE/FC Small Intestine” value ([1]; dose 3 mg/kg in feed) was 0.45, the “CE/FC Adrenal Gland” value ([1]; dose 10 mg/kg in feed) was 0.11 and the “CE/FC Lipid Accumulation to Artery” value ([1]; dose 10 mg/kg in feed) was 0.32. For the same compound, the “CE/FC Liver” value ([1]; dose 10 mg/kg in feed) was 0.16, the “CE/FC Small Intestine” value ([1]; dose 10 mg/kg in feed) was 0.21 and the “CE/FC Adrenal Gland” value ([1]; dose 30 mg/kg in feed) was 0.11. For the same compound, the “CE/FC Lipid Accumulation to Artery” value ([1]; dose 30 mg/kg in feed) was 0.28, the “CE/FC Liver” value ([1]; dose 30 mg/kg in feed) was 0.09 and the “CE/FC Small Intestine” value ([1]; dose 30 mg/kg in feed) was 0.13.

For `CC(C)c1cc(O)cc(C(C)C)c1NC(=O)CN1CCN(CCSc2nc3ccccc3o2)CC1` [Example 72, 2-[4-[2-(benzoxazol-2-ylthio)ethyl]piperazin-1-yl]-N-(2,6-diisopropyl-4-hydroxyphenyl) acetamide], the “improving effect in oral absorption in terms of Cmax value” [4] was “about 4.3 fold”, the pIC50 (ACAT [5]) was 6.11 and the pIC50 (ACAT [2]) was 6.89. It also gave an AUC(0-inf) ([3]; medium 0.05N (Aq HCl)) of 1100 ng·h/mL and a Cmax ([3]; medium 0.05N (Aq HCl)) of 470 ng/mL.

With `COc1cc(C(C)C)c(NC(=O)CN2CCN(CCSc3nc4ccccc4o3)CC2)c(C(C)C)c1` [Example 75, 2-[4-[2-(benzoxazol-2-ylthio)ethyl]piperazin-1-yl]-N-(2,6-diisopropyl-4-methoxyphenyl)acetamide] the pIC50 (ACAT [5]) was 5.00, the “macrophage selectivity (IC50 (HepG2)/IC50 (J774))” value (ACAT [2]) was “not less than 96 fold” and the pIC50 (ACAT [2]) was 7.00.

`CCOCCOc1cc(C(C)C)c(NC(=O)CN2CCN(CCSc3nc4ccccc4o3)CC2)c(C(C)C)c1` [Example 78, 2-[4-[2-(benzoxazol-2-ylthio)ethyl]piperazin-1-yl]-N-[2,6-diisopropyl-4-(2-ethoxyethyl)oxyphenyl]acetamide] gave a pIC50 (ACAT [2]) of 7.85, an AUC(0-inf) ([3]; medium PEG 400:DMSO = 5:1) of 29.8 ng·h/mL and a Cmax ([3]; medium PEG 400:DMSO = 5:1) of 14.8 ng/mL.

With `CC(C)c1cccc(C(C)C)c1NC(=O)CN1CCN(CCSc2nc3cccc(C(F)(F)F)c3o2)CC1` [Example 85, 2-[4-[2-(7-trifluoromethylbenzoxazol-2-ylthio)ethyl]piperazin-1-yl]-N-(2,6-diisopropylphenyl)acetamide] the pIC50 (ACAT [5]) was 6.17, the pIC50 (ACAT [2]) was 7.72 and the AUC(0-inf) ([3]; medium PEG 400) was 71.8 ng·h/mL. For the same compound, the Cmax ([3]; medium PEG 400) was 17.6 ng/mL.
